The source of these data is patent publication US7329652B2, “Diaminotriazole compounds useful as protein kinase inhibitors” (Vertex Pharamaceuticals Incorporated, priority 2004, dated 2008).

The structures appear in SMILES notation. Read-outs that look alike come from different tables or passages of the source.

The term Ki denotes the dissociation constant of the complex between target and ligand, obtained from inhibition or displacement.

For one assay, the target named is JAK-2 enzyme (Homo sapiens, UniProt O60674). In words: JAK2 inhibition assay (radiometric 33P filter assay). The format is biochemical. In outline: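 JAK-2 enzyme in 100 mM HEPES pH 7.4, 1 mM DTT, 10 mM MgCl2, 25 mM NaCl, 0.01% BSA, with final 12 μM [33P]ATP and 15 μM poly(Glu)4Tyr. Reactions ran 20 min at 25 °C and were stopped with TCA. 33P incorporation was counted after glass-fibre filtration.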

The next assay concerns the target T1, JAK3 (Homo sapiens, UniProt P52333).
T1 sequence (P52333 1-1124): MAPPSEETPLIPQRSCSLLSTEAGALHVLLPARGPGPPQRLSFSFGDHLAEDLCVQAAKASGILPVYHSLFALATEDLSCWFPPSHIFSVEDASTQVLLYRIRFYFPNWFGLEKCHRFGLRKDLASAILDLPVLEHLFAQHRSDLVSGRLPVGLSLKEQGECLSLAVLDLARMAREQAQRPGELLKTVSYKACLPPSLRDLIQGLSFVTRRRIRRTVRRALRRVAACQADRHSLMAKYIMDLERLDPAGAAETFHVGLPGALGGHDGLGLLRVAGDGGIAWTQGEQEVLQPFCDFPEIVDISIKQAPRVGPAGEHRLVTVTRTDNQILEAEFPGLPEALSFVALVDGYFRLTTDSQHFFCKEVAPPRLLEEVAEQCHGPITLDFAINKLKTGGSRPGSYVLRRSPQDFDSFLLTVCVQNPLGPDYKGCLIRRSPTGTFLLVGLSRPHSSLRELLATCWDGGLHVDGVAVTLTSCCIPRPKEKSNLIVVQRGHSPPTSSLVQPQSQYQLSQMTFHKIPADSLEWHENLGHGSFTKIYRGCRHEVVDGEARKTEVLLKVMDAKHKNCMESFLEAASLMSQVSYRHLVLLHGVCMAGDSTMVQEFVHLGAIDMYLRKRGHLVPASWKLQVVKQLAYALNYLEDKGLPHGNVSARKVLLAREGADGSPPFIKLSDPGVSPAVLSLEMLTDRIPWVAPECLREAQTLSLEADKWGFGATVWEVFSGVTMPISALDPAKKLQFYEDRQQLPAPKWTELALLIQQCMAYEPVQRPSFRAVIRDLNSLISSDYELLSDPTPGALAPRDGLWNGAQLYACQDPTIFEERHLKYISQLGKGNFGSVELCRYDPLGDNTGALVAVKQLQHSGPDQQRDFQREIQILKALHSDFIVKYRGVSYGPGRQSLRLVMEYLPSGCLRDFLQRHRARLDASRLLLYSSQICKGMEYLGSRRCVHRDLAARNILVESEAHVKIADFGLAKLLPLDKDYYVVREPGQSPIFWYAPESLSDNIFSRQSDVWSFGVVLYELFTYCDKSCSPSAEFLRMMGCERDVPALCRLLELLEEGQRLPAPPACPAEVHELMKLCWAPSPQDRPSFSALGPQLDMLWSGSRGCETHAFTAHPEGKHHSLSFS
In words: JAK3 inhibition assay (radiometric 33P filter assay). The format is biochemical. Summed up: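 Final conditions were 1 nM JAK3, 5 μM ATP (200 uCi/μmole) and 1 μM poly(Glu)4Tyr in 100 mM HEPES pH 7.4, 10 mM MgCl2, 25 mM NaCl, 1 mM DTT and 0.01% BSA. After 20 min at 25 °C the reaction was stopped with TCA. 33P incorporation was counted after glass-fibre filtration.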

The mark [1] stands for this setting: 15 μM poly(Glu)4Tyr, 12 μM ATP, read-out: JAK2 inhibition data (Ki).
The mark [2] stands for this setting: 1 μM poly(Glu)4Tyr, 5 μM ATP, 1 nM JAK3, 25° C., read-out: JAK3 inhibition data (Ki).

JAK-2 enzyme, sequence (O60674 whole entry, species assumed): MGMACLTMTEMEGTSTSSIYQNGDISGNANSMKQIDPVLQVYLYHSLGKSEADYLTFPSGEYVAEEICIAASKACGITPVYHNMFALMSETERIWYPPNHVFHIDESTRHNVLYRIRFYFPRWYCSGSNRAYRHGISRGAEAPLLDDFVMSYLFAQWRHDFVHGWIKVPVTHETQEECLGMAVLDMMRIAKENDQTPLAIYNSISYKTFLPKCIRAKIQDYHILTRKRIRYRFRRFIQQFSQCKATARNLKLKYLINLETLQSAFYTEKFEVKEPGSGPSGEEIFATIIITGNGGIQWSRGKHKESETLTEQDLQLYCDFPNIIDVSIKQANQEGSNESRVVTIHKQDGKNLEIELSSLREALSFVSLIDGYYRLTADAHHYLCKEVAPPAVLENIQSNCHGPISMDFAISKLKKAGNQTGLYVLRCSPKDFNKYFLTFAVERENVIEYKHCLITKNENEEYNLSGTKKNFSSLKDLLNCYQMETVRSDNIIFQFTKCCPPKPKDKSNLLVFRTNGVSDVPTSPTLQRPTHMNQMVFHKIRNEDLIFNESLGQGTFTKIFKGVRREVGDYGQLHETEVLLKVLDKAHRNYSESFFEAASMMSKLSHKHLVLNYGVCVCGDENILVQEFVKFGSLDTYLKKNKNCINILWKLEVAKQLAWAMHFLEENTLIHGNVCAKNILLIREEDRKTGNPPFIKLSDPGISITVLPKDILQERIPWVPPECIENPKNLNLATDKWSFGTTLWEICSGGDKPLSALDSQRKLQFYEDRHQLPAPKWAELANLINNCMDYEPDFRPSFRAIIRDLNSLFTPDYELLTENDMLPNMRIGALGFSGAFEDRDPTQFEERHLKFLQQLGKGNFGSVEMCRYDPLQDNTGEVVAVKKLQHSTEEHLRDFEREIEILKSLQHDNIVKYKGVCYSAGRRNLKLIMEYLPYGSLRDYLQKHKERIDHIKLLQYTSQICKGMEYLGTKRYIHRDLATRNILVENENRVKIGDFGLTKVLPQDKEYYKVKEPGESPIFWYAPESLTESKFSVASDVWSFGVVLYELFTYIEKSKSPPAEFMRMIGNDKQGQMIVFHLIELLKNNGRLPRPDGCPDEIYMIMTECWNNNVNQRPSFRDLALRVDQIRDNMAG

For the compound `CCOC(=O)Nc1ccc(Nc2nc(N)n(-c3ccnc(N4C[C@@H](C)N(C(C)=O)[C@@H](C)C4)c3)n2)cc1` [Compound 101], the Ki at JAK-2 enzyme (setting [1]) and at JAK3 (setting [2]) was under 50 nM each time.
`COC(=O)N1CCN(c2ccc(Nc3nc(N)n(-c4cc(N5C[C@@H](C)N(C(C)=O)[C@@H](C)C5)ncn4)n3)cc2)CC1` [Compound 53]: the Ki at JAK-2 enzyme (setting [1]) and at JAK3 (setting [2]) was under 50 nM each time.
Consider `CC(=O)N1[C@H](C)CN(c2cc(-n3nc(Nc4ccc(N5CCNCC5)cc4)nc3N)ncn2)C[C@@H]1C` [Compound 59], for which the Ki on JAK-2 enzyme (setting [1]) and at JAK3 (setting [2]) was under 50 nM each time.
As for `CCNC(=O)Nc1ccc(Nc2nc(N)n(-c3cc(N4C[C@@H](C)N(C(C)=O)[C@@H](C)C4)ncn3)n2)cc1` [Compound 67], the Ki at JAK-2 enzyme (setting [1]) and at JAK3 (setting [2]) was under 50 nM in each case.
In the case of `Nc1nc(Nc2ccc(N3CCOCC3)cc2)nn1-c1cc(N2CCCCCC2)ncn1` [Compound 15], the Ki on JAK-2 enzyme (setting [1]) and at JAK3 (setting [2]) was under 50 nM each time.
Regarding `CCCOC(=O)N1CCN(c2ccc(Nc3nc(N)n(-c4cc(N5C[C@@H](C)N(C(C)=O)[C@@H](C)C5)ncn4)n3)cc2)CC1` [Compound 55], the Ki at JAK-2 enzyme (setting [1]) and on JAK3 (setting [2]) was under 50 nM in each case.
For `N#CCC(=O)N1CCCN(c2cc(-n3nc(Nc4ccc(N5CCNCC5)cc4)nc3N)ncn2)CC1` [Compound 123], the Ki at JAK-2 enzyme (setting [1]) and at JAK3 (setting [2]) was under 50 nM in each case.
`Nc1nc(Nc2ccc(N3CCOCC3)cc2)nn1-c1ccnc(N2CCCOCC2)c1` [Compound 14]: the inhibition constant (Ki) at JAK-2 enzyme (setting [1]) and at JAK3 (setting [2]) was 50 to 500 nM in each case.
In the case of `CS(=O)(=O)N1CCCN(c2cc(-n3nc(Nc4ccc(N5CCOCC5)cc4)nc3N)ncn2)CC1` [Compound 7], the Ki on JAK-2 enzyme (setting [1]) and at JAK3 (setting [2]) was under 50 nM each time.
As to `CCNC(=O)N1CCN(c2ccc(Nc3nc(N)n(-c4cc(N5C[C@@H](C)N(C(C)=O)[C@@H](C)C5)ncn4)n3)cc2)CC1` [Compound 60], the Ki on JAK-2 enzyme (setting [1]) and at JAK3 (setting [2]) was under 50 nM throughout.
For the compound `Nc1nc(Nc2ccc(N3CCOCC3)cc2)nn1-c1ccnc(N2CC3CCC(CC3)C2)c1` [Compound 18], the Ki at JAK-2 enzyme (setting [1]) and on JAK3 (setting [2]) was under 50 nM throughout.
As for `CC(=O)N1CCCN(c2cc(-n3nc(Nc4ccc(NC(=O)c5ccncc5)cc4)nc3N)ncn2)CC1` [Compound 28], the Ki on JAK-2 enzyme (setting [1]) and on JAK3 (setting [2]) was under 50 nM throughout.
In the case of `CCOC(=O)CCNC(=O)Nc1ccc(Nc2nc(N)n(-c3cc(N4C[C@@H](C)N(C(C)=O)[C@@H](C)C4)ncn3)n2)cc1` [Compound 72], the Ki at JAK-2 enzyme (setting [1]) and on JAK3 (setting [2]) was under 50 nM each time.
For `CC(=O)N1[C@H](C)CN(c2cc(-n3nc(Nc4ccc(NC(=O)OC(C)C)cc4)nc3N)ncn2)C[C@@H]1C` [Compound 78], the Ki at JAK-2 enzyme (setting [1]) and on JAK3 (setting [2]) was under 50 nM throughout.
Turning to `CC(=O)N1CCCN(c2cc(-n3nc(Nc4ccc(N(C)C(=O)Oc5ccc(C)cc5)cc4)nc3N)ncn2)CC1` [Compound 133], the Ki at JAK-2 enzyme and on JAK3 was under 50 nM each time.
For `CC(=O)N1[C@H](C)CN(c2cc(-n3nc(Nc4ccc(NC(=O)OCC(C)C)cc4)nc3N)ccn2)C[C@@H]1C` [Compound 100], the Ki on JAK-2 enzyme (setting [1]) and at JAK3 (setting [2]) was under 50 nM throughout.
`CC(=O)N1[C@H](C)CN(c2cc(-n3nc(Nc4ccc(NC(=O)NC(C)C)cc4)nc3N)ccn2)C[C@@H]1C` [Compound 107]: the inhibition constant Ki on JAK-2 enzyme (setting [1]) and at JAK3 (setting [2]) was under 50 nM throughout.
Take `CCCOC(=O)N1CCN(c2ccc(Nc3nc(N)n(-c4ccnc(N5CCCN(S(=O)(=O)C(C)C)CC5)c4)n3)cc2)CC1` [Compound 165]: the Ki on JAK-2 enzyme (setting [1]) and at JAK3 (setting [2]) was 50 to 500 nM each time.
On to `CCOC(=O)N1CCN(c2ccc(Nc3nc(N)n(-c4cc(N5C[C@@H](C)N(C(C)=O)[C@@H](C)C5)ncn4)n3)cc2)CC1` [Compound 54], for which the Ki on JAK-2 enzyme (setting [1]) and on JAK3 (setting [2]) was under 50 nM in each case.
For `Cc1ccc(OC(=O)Nc2ccc(Nc3nc(N)n(-c4cc(N5CCCN(C(=O)CC#N)CC5)ncn4)n3)cc2)cc1` [Compound 138], the Ki on JAK-2 enzyme (setting [1]) and at JAK3 (setting [2]) was under 50 nM each time.
